{"source": "PubChem BioAssay AID1963445", "about": "(Molecular Pharmacology Branch, DTP, NCI, 2024)", "tested_on": "MCF7 complex spheroid growth, % test/control", "experiment": "Anticancer human tumor MCF7 cell line growth inhibition [Asc];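 as to all read-outs here: spheroids exposed to compounds for 7 days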;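 as to viability, T/C: 100% = DMSO vehicle control wells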", "details": "for IC50: curve of first compound; for viability, T/C: stronger effect = lower value", "summary_of_the_method": "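Spheroid model: tumor line + HUVEC + hMSC. Single agents and combinations; top conc. at/near clinical Cmax (10 microM if undetermined), half-log dilutions. DMSO stocks at 800-fold test concentration.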", "data": [{"molecule": "NC(=O)C(=Cn1cnc(-c2cc(C(F)(F)F)cc(C(F)(F)F)c2)n1)c1cncnc1", "note": "+ CNC(C)C(=O)NC1CN(S(=O)(=O)c2cccc(S(=O)(=O)N3CCC4CCC(C(=O)NC(c5ccccc5)c5ccccc5)N4C(=O)C(NC(=O)C(C)NC)C3)c2)CCC2CCC(C(=O)NC(c3ccccc3)c3ccccc3)N2C1=O", "values": [{"measurement": "IC50", "setting": "second compound 0.00316 µM", "value": "< 0.949", "unit": "nM"}, {"measurement": "IC50", "setting": "second compound 0.01 µM", "value": "< 0.949", "unit": "nM"}, {"measurement": "IC50", "setting": "second compound 0.0316 µM", "value": "< 0.949", "unit": "nM"}, {"measurement": "IC50", "setting": "second compound 0.1 µM", "value": "< 0.949", "unit": "nM"}, {"measurement": "IC50", "setting": "second compound 0.316 µM", "value": "< 0.949", "unit": "nM"}, {"measurement": "IC50", "setting": "second compound 1 µM", "value": "< 0.949", "unit": "nM"}, {"measurement": "viability, T/C", "setting": "second compound 0.00316 µM, first compound 0.000949 µM", "value": 38.3, "unit": "%"}, {"measurement": "viability, T/C", "setting": "second compound 0.00316 µM, first compound 0.003 µM", "value": 35.7, "unit": "%"}, {"measurement": "viability, T/C", "setting": "second compound 0.00316 µM, first compound 0.00949 µM", "value": 23.6, "unit": "%"}, {"measurement": "viability, T/C", "setting": "second compound 0.00316 µM, first compound 0.03 µM", "value": 16.3, "unit": "%"}, {"measurement": "viability, T/C", "setting": "second compound 0.00316 µM, first compound 0.0949 µM", "value": 15.7, "unit": "%"}, {"measurement": "viability, T/C", "setting": "second compound 0.00316 µM, first compound 0.3 µM", "value": 19.8, "unit": "%"}, {"measurement": "viability, T/C", "setting": "second compound 0.01 µM, first compound 0.000949 µM", "value": 17.5, "unit": "%"}, {"measurement": "viability, T/C", "setting": "second compound 0.01 µM, first compound 0.003 µM", "value": 12.1, "unit": "%"}, {"measurement": "viability, T/C", "setting": "second compound 0.01 µM, first compound 0.00949 µM", "value": 11.6, "unit": "%"}, {"measurement": "viability, T/C", "setting": "second compound 0.01 µM, first compound 0.03 µM", "value": 14.1, "unit": "%"}, {"measurement": "viability, T/C", "setting": "second compound 0.01 µM, first compound 0.0949 µM", "value": 17.8, "unit": "%"}, {"measurement": "viability, T/C", "setting": "second compound 0.01 µM, first compound 0.3 µM", "value": 16.7, "unit": "%"}, {"measurement": "viability, T/C", "setting": "second compound 0.0316 µM, first compound 0.000949 µM", "value": 17.1, "unit": "%"}, {"measurement": "viability, T/C", "setting": "second compound 0.0316 µM, first compound 0.003 µM", "value": 12.9, "unit": "%"}, {"measurement": "viability, T/C", "setting": "second compound 0.0316 µM, first compound 0.00949 µM", "value": 13.1, "unit": "%"}, {"measurement": "viability, T/C", "setting": "second compound 0.0316 µM, first compound 0.03 µM", "value": 17, "unit": "%"}, {"measurement": "viability, T/C", "setting": "second compound 0.0316 µM, first compound 0.0949 µM", "value": 19, "unit": "%"}, {"measurement": "viability, T/C", "setting": "second compound 0.0316 µM, first compound 0.3 µM", "value": 20.2, "unit": "%"}, {"measurement": "viability, T/C", "setting": "second compound 0.1 µM, first compound 0.000949 µM", "value": 14.6, "unit": "%"}, {"measurement": "viability, T/C", "setting": "second compound 0.1 µM, first compound 0.003 µM", "value": 14.6, "unit": "%"}, {"measurement": "viability, T/C", "setting": "second compound 0.1 µM, first compound 0.00949 µM", "value": 13.7, "unit": "%"}, {"measurement": "viability, T/C", "setting": "second compound 0.1 µM, first compound 0.03 µM", "value": 14.3, "unit": "%"}, {"measurement": "viability, T/C", "setting": "second compound 0.1 µM, first compound 0.0949 µM", "value": 22.9, "unit": "%"}, {"measurement": "viability, T/C", "setting": "second compound 0.1 µM, first compound 0.3 µM", "value": 22.2, "unit": "%"}, {"measurement": "viability, T/C", "setting": "second compound 0.316 µM, first compound 0.000949 µM", "value": 12.9, "unit": "%"}, {"measurement": "viability, T/C", "setting": "second compound 0.316 µM, first compound 0.003 µM", "value": 16, "unit": "%"}, {"measurement": "viability, T/C", "setting": "second compound 0.316 µM, first compound 0.00949 µM", "value": 14.4, "unit": "%"}, {"measurement": "viability, T/C", "setting": "second compound 0.316 µM, first compound 0.03 µM", "value": 14.5, "unit": "%"}, {"measurement": "viability, T/C", "setting": "second compound 0.316 µM, first compound 0.0949 µM", "value": 22.4, "unit": "%"}, {"measurement": "viability, T/C", "setting": "second compound 0.316 µM, first compound 0.3 µM", "value": 23.7, "unit": "%"}, {"measurement": "viability, T/C", "setting": "second compound 1 µM, first compound 0.000949 µM", "value": 13.9, "unit": "%"}, {"measurement": "viability, T/C", "setting": "second compound 1 µM, first compound 0.003 µM", "value": 16, "unit": "%"}, {"measurement": "viability, T/C", "setting": "second compound 1 µM, first compound 0.00949 µM", "value": 13.9, "unit": "%"}, {"measurement": "viability, T/C", "setting": "second compound 1 µM, first compound 0.03 µM", "value": 16.6, "unit": "%"}, {"measurement": "viability, T/C", "setting": "second compound 1 µM, first compound 0.0949 µM", "value": 18.5, "unit": "%"}, {"measurement": "viability, T/C", "setting": "second compound 1 µM, first compound 0.3 µM", "value": 22.3, "unit": "%"}]}]}
